Laboratory results published in paper PMC12118597 (Science Advances, 2025).
Read-outs that look alike come from different tables or passages of the source.

Biological target: SARS-CoV-2 NSP3 macrodomain (Mac1) (Severe acute respiratory syndrome coronavirus 2, UniProt P0DTD1)
Type: binding
Settings: for PanDDA run, overall: Hit / PanDDA run, overall: Modeled / PanDDA run, overall: Modeling comment: P43 crystal form; for Total number of conformations: ligand conformations modeled in the crystal structure; for 2*(1-BDC) (%): occupancy estimate from PanDDA
[1] = PanDDA background density correction factor
[2] = TRUE = crystal structure with ligand obtained
[3] = refined crystallographic occupancy
[4] = site of ligand in X-ray crystal structure
[5] = crystal soak 10 mM, TFA/DMSO background map

Row | Compound | Occupancy difference (refined_occupancy - 2*(1-BDC)) | 1-BDC [1] | X-ray crystal structure [2] | PanDDA run, overall: Hit (crystal soak 10 mM) | PanDDA run, overall: Modeled (crystal soak 10 mM) | PanDDA run, DMSO background map: 1-BDC (crystal soak 10 mM) | PanDDA run, DMSO background map: Hit (crystal soak 10 mM) | Total number of conformations | 2*(1-BDC) (%) | Refined ligand occupancy (%) [3] | Binding site [4] | 1-BDC (PanDDA background density correction, 1-BDC) | Refined ligand occupancy (%) (crystallographic refinement) | X-ray crystal structure (ligand-bound crystal structure obtained (TRUE)) | Binding site (site occupied in X-ray crystal structure) | PanDDA run, overall: Modeling comment (crystal soak 10 mM) | PanDDA run, TFA/DMSO background map: 1-BDC [5] | PanDDA run, TFA/DMSO background map: Hit [5]
1 | Cn1cc(CC(CO)Nc2ncnc3[nH]ccc23)cn1 (stereo not shown) [AVI-3657] | 0 | 0.15 | TRUE | TRUE | TRUE | 0.15 | TRUE | 1 | 30% | 30% | Adenosine | – | – | – | – | – | – | –
2 | OCC(CC1OCCO1)Nc1ncnc2[nH]ccc12 (stereo not shown) [AVI-3658] | 0 | 0.2 | TRUE | TRUE | TRUE | 0.2 | TRUE | 1 | 40% | 40% | Adenosine | – | – | – | – | – | – | –
3 | OCC(Nc1ncnc2[nH]ccc12)c1ccco1 (stereo not shown) [AVI-3659] | 0 | 0.16 | TRUE | TRUE | TRUE | 0.16 | TRUE | 1 | 32% | 32% | Adenosine | – | – | – | – | – | – | –
4 | OCC(CC1CCCO1)Nc1ncnc2[nH]ccc12 (stereo not shown) [AVI-3660] | 0 | 0.23 | TRUE | TRUE | TRUE | 0.23 | TRUE | 1 | 46% | 46% | Adenosine | – | – | – | – | – | – | –
5 | OC1CCN(c2ncnc3[nH]ccc23)C1 (stereo not shown) [AVI-3661] | – | – | – | TRUE | TRUE | 0.15 | TRUE | – | 30% | – | – | 0.15 | 40% | TRUE | Adenosine | – | – | –
6 | OCC(CC1CC1)Nc1ncnc2[nH]ccc12 (stereo not shown) [AVI-3662] | 0 | 0.14 | TRUE | TRUE | TRUE | 0.14 | TRUE | 1 | 28% | 28% | Adenosine | – | – | – | – | Distal site, weak density, not modeled | – | –
7 | OCC(CC1CCOC1)Nc1ncnc2[nH]ccc12 (stereo not shown) [AVI-3665] | 0 | 0.17 | TRUE | TRUE | TRUE | 0.17 | TRUE | 1 | 34% | 34% | Adenosine | – | – | – | – | – | – | –
8 | CCC(Nc1ncnc2[nH]ccc12)C(C)(C)O (stereo not shown) [AVI-3667] | 0 | 0.14 | TRUE | TRUE | TRUE | 0.14 | TRUE | 1 | 28% | 28% | Adenosine | – | – | – | – | – | – | –
9 | CC(C)CCC(CO)Nc1ncnc2[nH]ccc12.O=C(O)C(F)(F)F (stereo not shown) [AVI-3668] | – | – | – | TRUE | – | 0.15 | TRUE | – | – | – | – | – | – | – | – | Weak density, not modeled | 0.09 | TRUE
10 | OCC(Cc1nccs1)Nc1ncnc2[nH]ccc12 (stereo not shown) [AVI-3673] | 0 | 0.19 | TRUE | TRUE | TRUE | 0.19 | TRUE | 1 | 38% | 38% | Adenosine | – | – | – | – | – | – | –
11 | Cc1ccccc1CC(CO)Nc1ncnc2[nH]ccc12 (stereo not shown) [AVI-3674] | 0 | 0.19 | TRUE | TRUE | TRUE | 0.19 | TRUE | 1 | 38% | 38% | Adenosine | – | – | – | – | – | – | –
